Results published in PubChem BioAssay (NCI).
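Results reflect a 48-hour exposure of cells in 96-well plates to compound at five concentrations. Here, GI50 denotes the concentration required for 50% inhibition of growth. The concentration for full growth arrest is given as TGI.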

What was measured:
Assay in all cases: inhibition of tumour cell growth, NCI panel, 48 h
K-562 leukemia = system: K-562 leukemia
SR leukemia = system: SR leukemia
SNB-19 CNS = system: SNB-19 CNS
NCI-H226 lung = system: NCI-H226 lung
NCI-H23 lung = system: NCI-H23 lung
CCRF-CEM leukemia = system: CCRF-CEM leukemia
SW-620 colon = system: SW-620 colon
MOLT-4 leukemia = system: MOLT-4 leukemia
COLO 205 colon = system: COLO 205 colon
SK-MEL-28 melanoma = system: SK-MEL-28 melanoma

Row | SMILES | GI50 (K-562 leukemia) | TGI (K-562 leukemia) | GI50 (SR leukemia) | TGI (SR leukemia) | GI50 (SNB-19 CNS) | TGI (SNB-19 CNS) | GI50 (NCI-H226 lung) | TGI (NCI-H226 lung) | GI50 (NCI-H23 lung) | TGI (NCI-H23 lung) | GI50 (CCRF-CEM leukemia) | TGI (CCRF-CEM leukemia) | GI50 (SW-620 colon) | TGI (SW-620 colon) | GI50 (MOLT-4 leukemia) | TGI (MOLT-4 leukemia) | GI50 (COLO 205 colon) | TGI (COLO 205 colon) | GI50 (SK-MEL-28 melanoma) | TGI (SK-MEL-28 melanoma)
1 | COc1ncc(-c2ccc3nccc(C#CCN4CCN(S(C)(=O)=O)CC4)c3c2)cc1NS(=O)(=O)c1ccc(F)cc1F | 0.665 µM | > 41.3 µM | 0.222 µM | 27 µM | 0.299 µM | 2.11 µM | 0.298 µM | 2.27 µM | 0.287 µM | 5.9 µM | 0.101 µM | 2.49 µM | 0.205 µM | 2.23 µM | 0.0391 µM | 2.29 µM | 0.0418 µM | 1.18 µM | 0.0256 µM | 0.843 µM
2 | CN(CSc1ccc(Cl)cc1)c1ccc(CSc2ccc(Cl)cc2)cc1 | 6.64 µM | > 100 µM | 1.77 µM | 7.58 µM | 9.14 µM | 23.2 µM | 2.16 µM | 6.67 µM | 4.24 µM | 19.5 µM | 0.704 µM | > 100 µM | 3.96 µM | 15.9 µM | 2.66 µM | > 100 µM | 3.59 µM | 13.6 µM | 5.55 µM | 19.6 µM
3 | NCCCNc1nc2ccc(Cl)cc2c2c(=O)c3cc(F)ccc3sc12 | 1.74 µM | 3.73 µM | 2.1 µM | 5.37 µM | 9.43 µM | 25.4 µM | 8.58 µM | 25.1 µM | 5.61 µM | 21.2 µM | 2.35 µM | 6.65 µM | 1.74 µM | 3.32 µM | 1.87 µM | 3.95 µM | 2.71 µM | 8.91 µM | 10.1 µM | 24.2 µM
4 | C=C(CN1CCN(c2ccccc2C(F)(F)F)CC1)c1ccc(C(=O)Nc2ccccc2N)cc1 | 1.54 µM | > 25.8 µM | 2.36 µM | 5.95 µM | 24.4 µM | > 100 µM | 7.79 µM | 48.1 µM | 5.93 µM | > 100 µM | 0.0728 µM | 0.546 µM | 3.4 µM | > 65.9 µM | 0.125 µM | 2.55 µM | 11.5 µM | 45.9 µM | 10.4 µM | > 100 µM
5 | CCc1cccc(CC)c1NC(=O)CC1SC(N)=NC1=O (stereo not given) | – | > 100 µM | – | > 100 µM | – | > 100 µM | – | > 100 µM | – | > 100 µM | – | > 100 µM | – | > 100 µM | – | > 100 µM | – | > 100 µM | – | > 100 µM
6 | CC(=O)CC(=O)NC=O | – | > 100 µM | – | > 100 µM | – | > 100 µM | – | > 100 µM | – | > 100 µM | – | > 100 µM | – | > 100 µM | – | > 100 µM | – | > 100 µM | – | > 100 µM
7 | O=C1c2cccnc2C(=O)c2c1c(C(=O)OCCc1ccccn1)c1ccccn21 | 0.0612 µM | > 100 µM | < 0.01 µM | > 100 µM | 0.0308 µM | 1.59 µM | 0.0277 µM | 0.472 µM | 0.0218 µM | 1.06 µM | 1.46 µM | > 25.9 µM | < 0.01 µM | > 44.8 µM | 1.09 µM | > 36.7 µM | 1.45 µM | 3.16 µM | 0.0749 µM | 1.55 µM
8 | COc1ccc(C2CC(c3ccc4ccccc4c3)=NN2c2nc(O)c(C3=c4cc(OC)ccc4=NC3=O)s2)cc1 (stereo not given) | 0.0662 µM | > 32.3 µM | 0.0531 µM | 2.92 µM | 0.0897 µM | 0.592 µM | 0.0581 µM | 0.248 µM | 0.0348 µM | 0.191 µM | 0.284 µM | > 43.3 µM | 0.0249 µM | 0.0658 µM | 0.11 µM | 0.91 µM | 0.0382 µM | 0.129 µM | 0.0932 µM | 0.334 µM
9 | Brc1ccc(Nc2nc3ccccc3nc2Nc2ccc(Br)cc2)cc1 | 0.786 µM | 11.6 µM | 0.715 µM | 5.52 µM | 0.591 µM | 12.2 µM | 2.75 µM | 10.1 µM | 1.32 µM | 6.52 µM | 1.01 µM | 10.7 µM | 2.78 µM | 10.5 µM | 1.15 µM | 9.45 µM | 1.84 µM | 3.35 µM | 2.18 µM | 6.87 µM
10 | CC(=O)OCC1OC([Se-])C(OC(C)=O)C(OC(C)=O)C1OC(C)=O.N#CCC[PH+](CCC#N)CCC#N.[Au+] (stereo not given) | 3.55 µM | 28.3 µM | 3.06 µM | 13.7 µM | 10.9 µM | > 77.9 µM | 3.73 µM | 16.3 µM | 4.55 µM | 23.1 µM | 3.46 µM | 27.3 µM | 4.75 µM | > 89 µM | 2.75 µM | 14.1 µM | 17.6 µM | > 100 µM | 9.01 µM | 60.5 µM
11 | O=C(Nc1ccc(I)cc1)c1cccc([N+](=O)[O-])c1O | 2.64 µM | > 100 µM | 2.87 µM | 19.8 µM | 3.68 µM | > 100 µM | 2.81 µM | 33.5 µM | 2.26 µM | 8 µM | 2.76 µM | 29.7 µM | 4.44 µM | > 100 µM | 3.38 µM | 92.3 µM | 3.66 µM | 34.6 µM | 4.63 µM | > 100 µM
12 | N#Cc1ccc(C(C2C(=O)NC(=O)NC2=O)C2C(=O)NC(=O)NC2=O)cc1 | – | > 100 µM | – | > 100 µM | – | > 100 µM | – | > 100 µM | – | > 100 µM | – | > 100 µM | – | > 100 µM | – | > 100 µM | – | > 100 µM | – | > 100 µM
13 | Cn1c(NCC(CN2CCCC2)OC(=O)c2ccccc2)cc(=O)n(C)c1=O (stereo not given) | > 100 µM | > 100 µM | > 100 µM | > 100 µM | > 100 µM | > 100 µM | > 100 µM | > 100 µM | > 100 µM | > 100 µM | 0.0757 µM | 4.06 µM | > 100 µM | > 100 µM | > 100 µM | > 100 µM | > 100 µM | > 100 µM | > 100 µM | > 100 µM
